Source: US11634396B2 (priority 2021, dated 2023)
Like-named read-outs stand apart in the source and are kept apart here.

Legend:
human dOR = human dOR (Homo sapiens (Human), UniProt P41143); assay: cell-based; details: dOR cAMP Agonist Assay EC50, CHO Tag-lite human dOR stable cell line; forskolin
human mOR = human mOR (Homo sapiens (Human), UniProt P35372); assay: cell-based
kOR (OPRK1) = kOR (OPRK1) (Homo sapiens (Human), UniProt P41145); assay: KOR β-Arrestin antagonist assay (Tango OPRK1-bla U2OS cells); format: cell-based
Source text: KOR β-Arrestin Agonist and Antagonist assays were preformed using the Tango™ OPRK1-bla U2OS cells from Invitrogen and purchased from ThermoFisher, catalog number K1576.

[1] = CHO Tag-lite human mOR stable cell line, forskolin 4 μM and DAMGO at EC90, read-out: mOR cAMP Antagonist Assay IC50

Sequence of human dOR (P41143 whole entry): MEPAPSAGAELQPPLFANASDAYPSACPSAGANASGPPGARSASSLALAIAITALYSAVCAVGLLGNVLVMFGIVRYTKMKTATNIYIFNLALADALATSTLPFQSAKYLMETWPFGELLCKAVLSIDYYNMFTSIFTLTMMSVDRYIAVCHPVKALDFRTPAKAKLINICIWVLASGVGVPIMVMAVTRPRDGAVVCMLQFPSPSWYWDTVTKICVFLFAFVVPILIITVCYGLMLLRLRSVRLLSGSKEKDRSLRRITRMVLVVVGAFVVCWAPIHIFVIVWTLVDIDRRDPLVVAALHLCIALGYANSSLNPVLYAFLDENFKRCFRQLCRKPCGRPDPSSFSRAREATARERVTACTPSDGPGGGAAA
Sequence of kOR (OPRK1) (P41145 whole entry): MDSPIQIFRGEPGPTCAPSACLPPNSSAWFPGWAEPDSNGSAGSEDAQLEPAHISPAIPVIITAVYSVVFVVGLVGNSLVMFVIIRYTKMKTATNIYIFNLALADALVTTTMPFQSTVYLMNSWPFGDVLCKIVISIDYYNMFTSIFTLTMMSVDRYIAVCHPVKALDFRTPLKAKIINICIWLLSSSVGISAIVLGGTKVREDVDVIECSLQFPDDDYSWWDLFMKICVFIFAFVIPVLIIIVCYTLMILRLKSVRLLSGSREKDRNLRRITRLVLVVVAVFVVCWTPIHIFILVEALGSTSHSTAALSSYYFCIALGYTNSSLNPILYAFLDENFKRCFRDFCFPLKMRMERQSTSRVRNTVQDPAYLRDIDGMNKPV
Sequence of human mOR (P35372 whole entry): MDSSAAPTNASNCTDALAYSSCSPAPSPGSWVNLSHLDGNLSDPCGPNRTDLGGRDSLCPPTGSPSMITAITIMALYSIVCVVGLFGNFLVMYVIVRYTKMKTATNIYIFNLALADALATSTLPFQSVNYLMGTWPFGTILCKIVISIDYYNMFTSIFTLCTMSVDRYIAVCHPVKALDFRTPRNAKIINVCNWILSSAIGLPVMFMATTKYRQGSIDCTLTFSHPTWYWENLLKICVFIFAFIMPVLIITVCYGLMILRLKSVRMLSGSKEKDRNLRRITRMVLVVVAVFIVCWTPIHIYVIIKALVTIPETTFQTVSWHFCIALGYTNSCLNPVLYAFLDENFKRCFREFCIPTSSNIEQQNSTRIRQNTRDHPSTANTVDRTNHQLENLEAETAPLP

Row | SMILES | EC50 (human dOR) | IC50 (human mOR; [1]) | IC50 (kOR (OPRK1)) | IC50 (human mOR)
1 | Cc1ccc([C@@H](CC(=O)NC[C@H](Cc2ccc(C(N)=O)c(F)c2Cl)N(C)C)C2(C(F)(F)F)CC2)cn1 [Compound 20, 3-chloro-4-((S)-2-(dimethylamino)-3-((R)-3-(6-methylpyridin-3-yl)-3-(1-(trifluoromethyl)cyclopropyl)propanamido)propyl)-2-fluorobenzamide] | 0.3 to 3 µM | < 0.3 µM | < 0.3 µM | 
2 | CN(C)[C@H](CNC(=O)C[C@H](c1ccccc1)C1(C(F)(F)F)CC1)Cc1ccc(C(N)=O)cc1Cl [Compound 39, 3-chloro-4-[(2S)-2-(dimethylamino)-3-[(3R)-3-phenyl-3-[1-(trifluoromethyl)cyclopropyl]propanamido]propyl]benzamide] | > 3 µM |  | < 0.3 µM | < 0.3 µM
3 | Cc1ncc([C@@H](CC(=O)NC[C@H](Cc2ccc(C(N)=O)c(F)c2)N(C)C)C2(C(F)(F)F)CC2)cn1 [Compound 68, 4-((S)-2-(dimethylamino)-3-((R)-3-(2-methylpyrimidin-5-yl)-3-(1-(trifluoromethyl)cyclopropyl)propanamido)propyl)-2-fluorobenzamide] | > 3 µM |  | < 0.3 µM | < 0.3 µM
4 | CN(C)[C@H](CNC(=O)C[C@@H](c1ccccc1)C1(C(F)(F)F)CC1)Cc1ccc(C(N)=O)cc1 [Compound 88, 4-[(2S)-2-(dimethylamino)-3-[(3S)-3-phenyl-3-[1-(trifluoromethyl)cyclopropyl]propanamido]propyl]benzamide] | < 0.3 µM |  | < 0.3 µM | < 0.3 µM
5 | Cc1cc(C(N)=O)cc(C)c1C[C@@H](CNC(=O)C[C@H](c1ccccc1)C1(C(F)(F)F)CC1)N(C)C [Compound 8, 4-((S)-2-(dimethylamino)-3-((R)-3-phenyl-3-(1-(trifluoromethyl)cyclopropyl)propanamido)propyl)-3,5-dimethylbenzamide] | > 3 µM | > 3 µM | < 0.3 µM | 
6 | CN(C)[C@H](CNC(=O)C[C@H](c1ccccc1)C1CC1)Cc1ccc2[nH]ncc2c1 [Compound 227, (3S)-3-cyclopropyl-N-[(2S)-2-(dimethylamino)-3-(1H-indazol-5-yl)propyl]-3-phenylpropanamide] | 0.3 to 3 µM | < 0.3 µM | 0.3 to 3 µM | 
7 | CNC(=O)c1ccc(C[C@@H](CNC(=O)C[C@H](c2ccccc2)C2(C(F)(F)F)CC2)N(C)C)c(C)c1 [Compound 143, 4-((S)-2-(dimethylamino)-3-((R)-3-phenyl-3-(1-(trifluoromethyl)cyclopropyl)propanamido)propyl)-N,3-dimethylbenzamide] | > 3 µM |  | < 0.3 µM | < 0.3 µM
8 | Cc1cc(C(N)=O)cc(C)c1C[C@@H](CNC(=O)C[C@@H](c1ccccc1)C1CC1)N(C)C [Compound 11, 4-((S)-3-((R)-3-cyclopropyl-3-phenylpropanamido)-2-(dimethylamino)propyl)-3,5-dimethylbenzamide] | > 3 µM |  | < 0.3 µM | < 0.3 µM
9 | CN(C)[C@H](CNC(=O)C[C@H](c1ccc(Cl)c(Cl)c1)C1(C(F)(F)F)CC1)Cc1ccc(C(N)=O)cc1 [Compound 80, 4-((S)-3-((R)-3-(3,4-dichlorophenyl)-3-(1-(trifluoromethyl)cyclopropyl)propanamido)-2-(dimethylamino)propyl)benzamide] | < 0.3 µM |  | < 0.3 µM | < 0.3 µM
10 | Cc1cc(C(N)=O)cc(C)c1C[C@@H](CNC(=O)C[C@@H](CC(C)C)c1ccccc1)N(C)C [Compound 12, 4-[(2S)-2-(dimethylamino)-3-[(3R)-5-methyl-3-phenylhexanamido]propyl]-3,5-dimethylbenzamide] | > 3 µM |  | < 0.3 µM | < 0.3 µM
11 | CNC(=O)c1ccc(C[C@@H](CNC(=O)C[C@H](c2ccc(Cl)cc2)C2(C(F)(F)F)CC2)N(C)C)c(C)c1 [Compound 142, 4-((S)-3-((R)-3-(4-chlorophenyl)-3-(1-(trifluoromethyl)cyclopropyl)propanamido)-2-(dimethylamino)propyl)-N,3-dimethylbenzamide] | > 3 µM |  | < 0.3 µM | < 0.3 µM
12 | CN(C)[C@H](CNC(=O)C[C@@H](c1ccccc1)C1CC1)Cc1ccc(O)cc1 [Compound 318, (R)-3-cyclopropyl-N-((S)-2-(dimethylamino)-3-(4-hydroxyphenyl)propyl)-3-phenylpropanamide] | < 0.3 µM |  | < 0.3 µM | < 0.3 µM
13 | CN(C)[C@H](CNC(=O)C[C@H](c1ccccc1)C1(C(F)(F)F)CC1)Cc1ccc(C(N)=O)c(F)c1 [Compound 77, 4-((S)-2-(dimethylamino)-3-((R)-3-phenyl-3-(1-(trifluoromethyl)cyclopropyl)propanamido)propyl)-2-fluorobenzamide] | > 3 µM |  | < 0.3 µM | < 0.3 µM
14 | CN(C)[C@H](CNC(=O)C[C@H](c1ccccc1)C1CC1)Cc1ccc(O)cc1 [Compound 319, (S)-3-cyclopropyl-N-((S)-2-(dimethylamino)-3-(4-hydroxyphenyl)propyl)-3-phenylpropanamide] | < 0.3 µM | > 3 µM | < 0.3 µM | 
15 | Cc1cc(C(N)=O)cc(C)c1C[C@@H](CNC(=O)C[C@@H](c1ccccc1)C1(C(F)(F)F)CC1)N(C)C [Compound 7, 4-((S)-2-(dimethylamino)-3-((S)-3-phenyl-3-(1-(trifluoromethyl)cyclopropyl)propanamido)propyl)-3,5-dimethylbenzamide] | < 0.3 µM | > 3 µM | < 0.3 µM | 
16 | CN(C)[C@H](CNC(=O)C[C@H](c1ccccc1)C1(C(F)(F)F)CC1)Cc1ccc(C(N)=O)cc1 [Compound 89, 4-[(2S)-2-(dimethylamino)-3-[(3R)-3-phenyl-3-[1-(trifluoromethyl)cyclopropyl]propanamido]propyl]benzamide] | < 0.3 µM |  | < 0.3 µM | < 0.3 µM
17 | CC(C)C[C@H](CC(=O)NC[C@H](Cc1ccc(C(N)=O)cc1)N(C)C)c1ccccc1 [Compound 96, 4-((S)-2-(dimethylamino)-3-((R)-5-methyl-3-phenylhexanamido)propyl)benzamide] | < 0.3 µM |  | < 0.3 µM | < 0.3 µM
18 | Cc1cc(O)cc(C)c1C[C@@H](CNC(=O)C[C@H](c1ccccc1)C1CC1)N(C)C [Compound 251, (S)-3-cyclopropyl-N-((S)-2-(dimethylamino)-3-(4-hydroxy-2,6-dimethylphenyl)propyl)-3-phenylpropanamide] | > 3 µM | < 0.3 µM | < 0.3 µM | 
19 | CN(C)[C@H](CNC(=O)C[C@@H](c1ccccc1)C1CC1)Cc1ccc(C(N)=O)cc1 [Compound 97, 4-((S)-3-((R)-3-cyclopropyl-3-phenylpropanamido)-2-(dimethylamino)propyl)benzamide] | < 0.3 µM |  | < 0.3 µM | < 0.3 µM
20 | CC(C)C[C@@H](CC(=O)NC[C@H](Cc1ccc(C(N)=O)cc1)N(C)C)c1ccccc1 [Compound 91, 4-[(2S)-2-(dimethylamino)-3-[(3S)-5-methyl-3-phenylhexanamido]propyl]benzamide] | < 0.3 µM |  | < 0.3 µM | < 0.3 µM
